Experimental findings from article PMC12136037, “Type II kinase inhibitors that target Parkinson’s disease–associated LRRK2” (Science Advances, 2025) are described below.

“And” between values parts separate entries of the source, which are not always exact repeats. Equal entries are not always repeated.

For assay [1], the target named is T1, LRRK2^KW (Homo sapiens, UniProt Q5S007).
T1 construct: LRRK2 R1847 to E2527; His6-Z-tag (TEV cleavable) (N, cleaved yes); host or cells: Sf9 insect cells (baculovirus)
T1 sequence (Q5S007 1847-2527): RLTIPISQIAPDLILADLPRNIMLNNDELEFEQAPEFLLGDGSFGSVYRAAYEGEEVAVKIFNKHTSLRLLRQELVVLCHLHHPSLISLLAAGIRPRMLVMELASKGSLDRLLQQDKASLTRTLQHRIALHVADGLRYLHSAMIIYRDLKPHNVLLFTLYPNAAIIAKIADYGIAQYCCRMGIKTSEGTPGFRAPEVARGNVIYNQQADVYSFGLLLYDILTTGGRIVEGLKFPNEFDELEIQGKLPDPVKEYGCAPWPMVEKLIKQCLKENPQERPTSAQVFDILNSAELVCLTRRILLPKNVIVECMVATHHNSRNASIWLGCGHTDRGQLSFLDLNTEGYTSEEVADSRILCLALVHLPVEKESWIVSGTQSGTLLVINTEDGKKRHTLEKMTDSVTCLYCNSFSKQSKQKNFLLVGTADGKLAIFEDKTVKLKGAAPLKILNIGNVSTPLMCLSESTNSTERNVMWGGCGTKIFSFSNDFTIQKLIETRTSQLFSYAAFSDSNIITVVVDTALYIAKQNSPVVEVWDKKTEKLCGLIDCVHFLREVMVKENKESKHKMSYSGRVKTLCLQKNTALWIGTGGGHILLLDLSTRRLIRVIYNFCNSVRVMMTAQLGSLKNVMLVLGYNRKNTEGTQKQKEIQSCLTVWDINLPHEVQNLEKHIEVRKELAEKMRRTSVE
Nature of the assay: DSF thermal stabilization of LRRK2^KW. Type of assay: binding. Conditions: DSF, LRRK2^KW, 10 μM inhibitor. In a few lines: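 DSF on 4 μM LRRK2^KW in 20 mM Hepes pH 7.4, 150 mM NaCl, 0.5 mM TCEP, 0.5% glycerol, 20 μM GDP, 2.5 mM MgCl2 with SYPRO Orange; inhibitor at 10 μM. Tm was taken as the minimum of the first derivative of fluorescence versus temperature, relative to control.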

Assay [2] deals with T2, LRRK2^RCKW (Homo sapiens, UniProt Q5S007).
T2 construct: LRRK2 R1327 to E2527; His6-Z-tag (TEV cleavable) (N, cleaved yes); host or cells: Sf9 insect cells (baculovirus)
T2 sequence (Q5S007 1327-2527): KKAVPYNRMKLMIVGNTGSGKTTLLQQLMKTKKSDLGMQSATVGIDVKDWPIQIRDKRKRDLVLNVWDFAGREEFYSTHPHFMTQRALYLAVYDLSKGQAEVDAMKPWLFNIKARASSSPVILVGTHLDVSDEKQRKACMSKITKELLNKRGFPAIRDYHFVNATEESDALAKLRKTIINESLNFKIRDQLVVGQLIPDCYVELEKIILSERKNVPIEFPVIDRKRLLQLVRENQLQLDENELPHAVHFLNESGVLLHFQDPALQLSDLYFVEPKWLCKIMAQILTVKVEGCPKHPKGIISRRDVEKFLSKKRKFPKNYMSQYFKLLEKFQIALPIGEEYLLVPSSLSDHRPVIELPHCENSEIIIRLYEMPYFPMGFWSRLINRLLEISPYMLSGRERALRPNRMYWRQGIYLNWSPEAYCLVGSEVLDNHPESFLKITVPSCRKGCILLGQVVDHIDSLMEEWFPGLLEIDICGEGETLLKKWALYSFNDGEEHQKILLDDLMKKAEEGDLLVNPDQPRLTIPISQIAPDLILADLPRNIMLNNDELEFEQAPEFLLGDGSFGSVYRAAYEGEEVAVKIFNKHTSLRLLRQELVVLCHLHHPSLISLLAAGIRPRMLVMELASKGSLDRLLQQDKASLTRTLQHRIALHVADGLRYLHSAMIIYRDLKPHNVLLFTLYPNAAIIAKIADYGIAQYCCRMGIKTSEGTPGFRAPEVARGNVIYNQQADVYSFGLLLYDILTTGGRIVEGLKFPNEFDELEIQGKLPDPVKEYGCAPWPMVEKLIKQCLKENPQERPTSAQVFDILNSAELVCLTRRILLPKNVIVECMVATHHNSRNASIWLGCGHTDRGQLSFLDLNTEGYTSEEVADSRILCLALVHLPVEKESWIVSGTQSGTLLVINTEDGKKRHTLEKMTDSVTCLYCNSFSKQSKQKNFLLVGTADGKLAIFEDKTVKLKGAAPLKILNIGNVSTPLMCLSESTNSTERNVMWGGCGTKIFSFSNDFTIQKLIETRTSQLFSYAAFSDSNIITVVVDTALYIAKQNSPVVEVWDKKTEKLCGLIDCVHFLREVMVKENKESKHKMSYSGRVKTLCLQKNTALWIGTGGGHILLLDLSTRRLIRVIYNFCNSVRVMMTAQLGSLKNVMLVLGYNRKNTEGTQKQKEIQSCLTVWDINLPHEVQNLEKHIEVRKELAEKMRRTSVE
Nature of the assay: Biochemical LRRK2 activity assay (PhosphoSense, AssayQuant SOX peptide AQT0615). As to conditions: for normalized response (LRRK2 activity): normalized to 0% (no kinase) and 100% (no inhibitor) control, two singlicate columns per compound. The procedure:
Two wells per compound were used as 0% (without protein and compound) and 100% (without compound) control. […] The 0% control wells were filled with 10 μl of pure reaction buffer. With the ECHO, 5 nl of 100 mM ATP was pipetted into each well, the plates were centrifuged at 1500g for 2 min, and the reaction was incubated at room temperature for 4 hours. The fluorescence of the SOX-peptide after 360-nm excitation was measured at 487-nm emission with a PHERAstar plate reader (BMG Labtech). The IC50 values were calculated from a nonlinear regression of the log[inhibitor] versus the normalized response with GraphPad Prism 8 (www.graphpad.com/, RRID:SCR_002798).

For assay [3], the system named is LRRK2 S935 phosphorylation. Nature of the assay: Western blot of LRRK2 biomarker site pS935 in transfected 293T cells. Type of assay: cell-based, human. The procedure: For all in cell kinase assays, after 48 hours, transfected cells were treated with either DMSO (control) or the indicated inhibitors for 4 hours at 37°C and 5% CO2. Following treatments, cells were washed three times with ice cold PBS. Cells were then lysed in ice cold radioimmunoprecipitation assay (RIPA) lysis buffer [50 mM tris (pH 8.0), 150 mM NaCl, 1% Triton X-100, 0.1% SDS, 0.5% sodium deoxycholate, and 1 mM DTT] in the presence of complete mini EASYpack protease inhibitor cocktail and the PhosSTOP EASYpack phosphatase inhibitor cocktail (Roche). Resuspended and lysed cells were clarified by centrifugation at 13,000g for 15 min at 4°C. NuPAGE LDS Sample Buffer (1×) and NuPAGE Sample Reducing Agent (1×; Invitrogen) were added to the clarified supernatants, and the samples were boiled at 95°C for 5 min and spun down at 13,000g for 10 min. For Western blotting, 15 μl of sample was loaded into a NuPAGE 4 to 12% gradient bis-tris gel (Invitrogen) and run at 120 V for 75 min before transfer to polyvinylidene difluoride transfer membrane (0.45-μm pore size, Millipore) for 240 min at 80 V at 4°C. The membrane was blocked in 5% milk in 1× Tris-buffered saline (TBS) [20 mM tris (pH 8.0) and 150 mM NaCl] for 1 hour shaking at room temperature. Primary antibodies [monoclonal rabbit anti-LRRK2 (Abcam, ab133474; RRID: AB_2713963), polyclonal rabbit anti-LRRK1 (Abcam, ab228666), monoclonal rabbit anti-LRRK2 phospho-S935 (Abcam, ab133450; RRID: AB_2732035), monoclonal rabbit anti-Rab8a phospho-T72 (Abcam, ab230260; RRID: AB_2814988), monoclonal rabbit anti-Rab7 phospho-S72 (Abcam, ab302494; RRID: AB_2933985), monoclonal rabbit anti–glyceraldehyde-3-phosphate dehydrogenase (GAPDH; Cell Signalling Technology, 2118; RRID: AB_561053), and monoclonal mouse anti-GFP (Santa Cruz Biotechnology, sc-9996; RRID: AB_627695)] were diluted in 5% milk in TBS and incubated with membrane for 16 hours at 4°C. Following incubation, membranes were washed three times with 1× TBS-T [20 mM tris (pH 8.0), 150 mM NaCl, and 0.1% Tween 20] before incubation with IRDye 680RD goat anti-rabbit IgG (LI-COR, 926-68071; RRID: AB_10956166) and IRDye 800CW goat anti-mouse IgG (LI-COR, 926-32210; RRID: AB_621842) secondary antibodies in 5% milk in 1× TBS for 1 hour at room temperature. Membranes were then washed three times in 1× TBS-T before imaging on Li-COR Odyssey CLx controlled by Imaging Studio software (www.licorbio.com/image-studio, RRID:SCR_015795). Image processing and quantification were performed in ImageJ version 2.14.0 (National Institutes of Health; https://imagej.net/, RRID:SCR_003070). The signal intensity of each band was assessed using the Analyze>Gels tool. The band intensity for phosphorylated LRRK2 was measured and compared to total LRRK2 levels (run under identical conditions on a separate gel). Band intensity for phosphorylated Rab7 or Rab8a was measured and compared against total GFP-Rab7 or GFP-Rab8a (using anti-GFP antibody) and LRRK1/LRRK2 levels as appropriate. Comparative statistical analysis of phosphorylation levels was analyzed using a one-way analysis of variance (ANOVA) and corrected using Tukey’s multiple comparisons test in GraphPad Prism 10 (www.graphpad.com/, RRID:SCR_002798). (For current step-by-step protocol for LRRK transfection and Western blotting, see dx.doi.org/10.17504/protocols.io.kxygx9bozg8j/v1.)
For orientation: Immunoblotting shows a protein as a band on a membrane.

Usually IC50 stands for the concentration that inhibits the measured activity by half. High values mean weaker potency in that assay, low ones greater potency in that assay. Take `O=C(Nc1ccc(F)cc1)C1(C(=O)Nc2cccc(-c3ccc4n[nH]cc4c3)c2)CC1` [Compound 47]: in assay [1], the “∆Tm (K)” value was found to be 3.0 K. Besides, the IC50 in assay [2] (Table S2, bound printed in μM under head IC50 [nM]) was > 15 µM. Further, the “normalized response (LRRK2 activity)” value in assay [2] (log[inhibitor(mol)] -4.82391) was 115.049% and 93.8598%; in assay [2] (log[inhibitor(mol)] -5.12494) it was 99.0859% and 93.2217%; in assay [2] (log[inhibitor(mol)] -5.60206), 93.6133% and 98.8538%; in assay [2] (log[inhibitor(mol)] -6.30103), 94.4738% and 97.6114%; in assay [2] (log[inhibitor(mol)] -6.90309), 97.3406% and 97.6501%; in assay [2] (log[inhibitor(mol)] -7.30103), 98.4526% and 101.585%. Further, the “normalized response (LRRK2 activity)” value in assay [2] (log[inhibitor(mol)] -7.60206) is 103.828% and 100.546%; in assay [2] (log[inhibitor(mol)] -8.09691), 94.8702% and 94.0339%; in assay [2] (log[inhibitor(mol)] -8.61979) it was 91.8535% and 95.7453%; in assay [2] (log[inhibitor(mol)] -9.09691), 97.0119% and 90.234%; in assay [2] (log[inhibitor(mol)] -9.39794) it was 103.089% and 99.1004%.

For the compound `C[C@@H]1CN(c2cc(-c3n[nH]c4ccc(OC5(C)CC5)cc34)ncn2)C[C@H](C)O1` [MLi-2, reference compound], in assay [3] (500 nM, 4 h, 3 replicates), the “pS935 LRRK2/LRRK2 normalized to DMSO, Mean” value is on record as 0.05291. The “pS935 LRRK2/LRRK2 normalized to DMSO” value in assay [3] (500 nM, 4 h, individual Western blots) was 0.09836 and 0.02387 and 0.03651. Besides, the “effect on phosphorylation of LRRK2 S935” value in assay [3] (293T cells, MLi-2 500 nM) is on record as “almost complete dephosphorylation”.

Turning to `Cn1cc(-c2c[nH]c3ncnc(N4CCOCC4)c23)cc1C#N` [PF-360, reference compound], the “∆Tm (K)” value in assay [1] is reported as 14.0 ± 0.7 K. The “normalized response (LRRK2 activity)” value in assay [2] (log[inhibitor(mol)] -4.82391) is -6.35% and -14.8637%; in assay [2] (log[inhibitor(mol)] -5.12494), -13.9757% and -14.0596%; in assay [2] (log[inhibitor(mol)] -5.60206), -14.9079% and -13.9094%; in assay [2] (log[inhibitor(mol)] -6.30103), -16.2775% and -13.8122%; in assay [2] (log[inhibitor(mol)] -6.90309), -15.2172% and -15.9196%; in assay [2] (log[inhibitor(mol)] -7.30103), -14.8814% and -10.0789%. The “normalized response (LRRK2 activity)” value in assay [2] (log[inhibitor(mol)] -8.09691) was -1.676% and 1.585%; in assay [2] (log[inhibitor(mol)] -8.61979), 61.433% and 54.956%; in assay [2] (log[inhibitor(mol)] -9.09691), 90.2569% and 81.7741%; in assay [2] (log[inhibitor(mol)] -9.39794), 97.0785% and 81.4958%.
